Literature values as cited in patent publication US12318376B2, “Compositions of a polyorthoester and an aprotic solvent” (Heron Therapeutics, Inc., priority 2013, dated 2025).

Conditions: printed in brackets under the miscibility class

| Structure (SMILES) | Water Miscibility (amount in brackets) |
| --- | --- |
| CCOC(C)=O [ethyl acetate] | (8.3 g/100 ml) |

Same assay, conditions: solvent in water, room temperature (20-25° C.)

| Structure (SMILES) | Water Miscibility |
| --- | --- |
| CC1COC(=O)O1 (stereo not drawn) [4-methyl-1,3-diololan-2-one] | water miscible |
| O=C1CCCN1C1CCCCC1 [N-cyclohexyl-2-pyrrolidone] | poorly miscible |
| CN1CCCC1=O [N-methyl-2-pyrrolidone (NMP), N-methyl-2-pyrrolidone] | water miscible |
| O=C(OCc1ccccc1)c1ccccc1 [benzyl benzoate] | poorly miscible |
| C[S+](C)[O-] [dimethyl sulfoxide] | water miscible |
| O=C1CCCCCO1 [ester-caprolactone] | water miscible |
| CCOC(C)=O [ethyl acetate] | partially miscible |
| CCOC(=O)C(C)O (stereo not drawn) [ethyl lactate] | water miscible |
| CCCCCCCC/C=C\CCCCCCCC(=O)OCC [ethyl oleate] | poorly miscible |
| CCCCCCCCCCCCCC(=O)OC(C)C [isopropyl myristate] | poorly miscible |
| COC(C)=O [methyl acetate] | water miscible |
| COC(=O)C(C)O (stereo not drawn) [methyl lactate] | water miscible |
| CCN1CCCC1=O [n-ethyl-2-pyrrolidone] | water miscible |
| C1CCOC1 [tetrahydrofuran] | water miscible |
